In PMC11492426, “Design, synthesis, and biological evaluation of novel quinoline-based EGFR/HER-2 dual-target inhibitors as potential anti-tumor agents” (RSC Advances, 2024):
Where two headings read alike, the source gives them in different places.

Legend:
[1] = Cell viability assay (MTT) on MCF-10A normal cells; type: cell-based; conditions: human, MCF-10A mammary gland epithelial normal cells, MCF-10A cells, four-day incubation
Method: The impact of compounds 3a–h and 5a–d on cell viability was evaluated using the human mammary (MCF-10A) gland epithelium normal cell line. The MTT assay was used to evaluate the cell viability of 3a–h and 5a–d after a four-day incubation period on MCF-10A cells.[46] Refer to Appendix A for more details.
The effect of new compounds 3a–h and 5a–d on cell viability was evaluated using the MCF-10A (human mammary gland epithelium) normal cell line.
4.2. Biological evaluation
4.2.1 Cell Viability assay (MTT assay)
MTT assay was performed to investigate the effect of the synthesized compounds on mammary epithelial cells (MCF-10A). The cells were propagated in medium consisting of Ham's F-12 medium/ Dulbecco's modified Eagle's medium (DMEM) (1:1) supplemented with 10% foetal calf serum, 2 mM glutamine, insulin (10 μg/mL), hydrocortisone (500 ng/mL) and epidermal growth factor (20 ng/mL). Trypsin ethylenediamine tetra acetic acid (EDTA) was used to passage the cells after every 2-3 days. 96-well flat-bottomed cell culture plates were used to seed the cells at a density of 10^4 cells mL-1. The medium was aspirated from all the wells of culture plates after 24 h followed by the addition of synthesized compounds (in 200 μL medium to yield a final concentration of 0.1% (v/v) dimethyl sulfoxide) into individual wells of the plates. Four wells were designated to a single compound. The plates were allowed to incubate at 37°C for 96 h. Afterwards, the medium was aspirated and 3-[4,5-dimethylthiazol-2-yl]-2,5-diphenyltetrazolium bromide (MTT) (0.4 mg/mL) in medium was added to each well and subsequently incubated for 3 h. The medium was aspirated and 150 μL dimethyl sulfoxide (DMSO) was added to each well. The plates were vortexed followed by the measurement of absorbance at 540 nm on a microplate reader. The results were presented as inhibition (%) of proliferation in contrast to controls comprising 0.1% DMSO.

[2] = system: A-549 lung cancer cell line; assay: Antiproliferative assay, A-549; type: cell-based; conditions: Homo sapiens, A549; A-549 lung cancer cells; read-out: Antiproliferative activity IC50 ± SEM, A-549
[3] = system: MCF-7 breast cancer cell line; assay: Antiproliferative assay, MCF-7; type: cell-based; conditions: Homo sapiens, MCF7; MCF-7 breast cancer cells; read-out: Antiproliferative activity IC50 ± SEM, MCF-7
[4] = system: Panc-1 pancreatic cancer cell line; assay: Antiproliferative assay, Panc-1; type: cell-based; conditions: Homo sapiens; Panc-1 pancreatic cancer cells; read-out: Antiproliferative activity IC50 ± SEM, Panc-1
[5] = system: HT-29 colon cancer cell line; assay: Antiproliferative assay, HT-29; type: cell-based; conditions: Homo sapiens; HT-29 colon cancer cells; read-out: Antiproliferative activity IC50 ± SEM, HT-29
[6] = system: four human cancer cell lines (A-549, MCF-7, Panc-1, HT-29); assay: Antiproliferative assay, average over four cancer cell lines; type: cell-based; conditions: Homo sapiens, average IC50 over the four cancer cell lines
EGFR [7] = target: T1, EGFR (Homo sapiens, UniProt P00533); assay: EGFR inhibitory assay (EGFR-TK assay)
T1 sequence (P00533 669-1210): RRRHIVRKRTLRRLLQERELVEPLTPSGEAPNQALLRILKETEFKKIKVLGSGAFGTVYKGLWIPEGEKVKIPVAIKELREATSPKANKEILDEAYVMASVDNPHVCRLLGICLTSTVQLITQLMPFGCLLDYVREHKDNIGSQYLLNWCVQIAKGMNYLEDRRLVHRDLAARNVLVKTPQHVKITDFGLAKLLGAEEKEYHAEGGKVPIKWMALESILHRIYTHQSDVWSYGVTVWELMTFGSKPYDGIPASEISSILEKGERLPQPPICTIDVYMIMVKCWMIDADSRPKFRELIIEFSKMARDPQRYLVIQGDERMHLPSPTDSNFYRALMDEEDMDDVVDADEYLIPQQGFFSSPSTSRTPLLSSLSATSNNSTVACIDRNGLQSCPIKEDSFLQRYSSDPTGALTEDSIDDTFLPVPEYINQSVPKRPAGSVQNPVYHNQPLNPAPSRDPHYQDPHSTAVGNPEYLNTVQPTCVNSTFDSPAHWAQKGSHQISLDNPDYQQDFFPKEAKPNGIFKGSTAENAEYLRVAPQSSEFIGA

HER2 = HER2 (Homo sapiens, UniProt P04626); assay: HER2 inhibitory assay (ADP-Glo kinase assay)
Chain of HER2 (P04626 676-1255 limits assumed): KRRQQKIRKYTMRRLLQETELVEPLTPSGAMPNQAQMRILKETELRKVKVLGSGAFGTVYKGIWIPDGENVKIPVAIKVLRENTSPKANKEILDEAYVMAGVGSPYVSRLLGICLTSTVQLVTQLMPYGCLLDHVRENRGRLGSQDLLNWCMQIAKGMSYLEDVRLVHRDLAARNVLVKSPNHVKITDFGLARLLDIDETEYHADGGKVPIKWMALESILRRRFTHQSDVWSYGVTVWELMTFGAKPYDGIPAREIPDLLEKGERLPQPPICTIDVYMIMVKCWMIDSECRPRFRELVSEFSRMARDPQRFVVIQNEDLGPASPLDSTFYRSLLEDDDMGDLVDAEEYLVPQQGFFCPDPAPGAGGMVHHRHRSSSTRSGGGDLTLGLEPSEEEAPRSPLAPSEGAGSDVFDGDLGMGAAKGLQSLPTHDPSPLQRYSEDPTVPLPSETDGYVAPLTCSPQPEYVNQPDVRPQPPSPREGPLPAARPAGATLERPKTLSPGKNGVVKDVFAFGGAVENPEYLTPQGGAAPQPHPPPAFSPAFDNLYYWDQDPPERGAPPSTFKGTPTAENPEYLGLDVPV

[8] = system: four human cancer cell lines; parameters: method as in ref 39 = [39]; Mohassab A. M. Hassan H. A. Abou-Zied H. A. Fujita M. Otsuka M. Gomaa H. A. Youssif B. G. Abdel-Aziz M. J. Mol. Struct. 2024 1297 136953; conditions: read-out: GI50 against four cancer cell lines; cited from earlier work
EGFR [9] = target: T1, EGFR; parameters: 645–1186; His6 (N); made in house; host or cells: Sf-9 insect cells (baculovirus vectors pBlueBacHis2B / pFASTBacHTc); method as in ref 38 (Makawana et al.); conditions: ref 38 (Makawana et al.); cited from earlier work
BRAF^V600E [10] = system: BRAF^V600E; parameters: method as in ref 39 = [39]; Mohassab A. M. Hassan H. A. Abou-Zied H. A. Fujita M. Otsuka M. Gomaa H. A. Youssif B. G. Abdel-Aziz M. J. Mol. Struct. 2024 1297 136953; conditions: cited from earlier work
BRAF^V600E [11] = system: BRAF^V600E; parameters: method as in PMID 33279248; conditions: cited from earlier work

| IC50 [2] [nM] | IC50 [3] [nM] | IC50 [4] [nM] | IC50 [5] [nM] | GI50 [6] [nM] | IC50 (EGFR [7]) [nM] | IC50 (HER2) [nM] | Structure (SMILES) | viability at 96 h, 50 µM [1] [%] | GI50 [8] [nM] | other results |
| --- | --- | --- | --- | --- | --- | --- | --- | --- | --- | --- |
| 39 ± 4 | 35 ± 4 | 41 ± 4 | 40 ± 3 | 39 | 85 ± 5 | 47 ± 3 | Cc1ccc2[nH]c(=O)c(C=Nc3ccc(NS(=O)(=O)c4ncccn4)cc3)c(O)c2c1 [Compound 5b, N-(4-(((4-hydroxy-6-methyl-2-oxo-1,2-dihydroquinolin-3-yl)methylene)amino)phenyl)pyrimidine-2-sulfonamide] | 90 |  |  |
| 46 ± 4 | 42 ± 4 | 48 ± 4 | 48 ± 4 | 46 | 93 ± 5 | 53 ± 3 | Cn1c(=O)c(C=Nc2ccc(NS(=O)(=O)c3ncccn3)cc2)c(O)c2ccccc21 [Compound 5d, N-(4-(((4-hydroxy-1-methyl-2-oxo-1,2-dihydroquinolin-3-yl)methylene)amino)phenyl)pyrimidine-2-sulfonamide] | 90 |  | melting point: 318 to 320 °C |
|  |  |  |  |  |  |  | CC(=NO)c1ccc(NC(=O)c2cc(-c3ccc(S(C)(=O)=O)cc3)nc3ccccc23)cc1 [Compound VIII] |  | 1200 |  |
|  |  |  |  |  |  |  | COc1ccc(Oc2nc3ccc(C)cc3cc2/C=N/NC(=O)Cn2cc([N+](=O)[O-])nc2C)cc1 [Compound VII] |  |  | IC50 (EGFR [9]): 120 ± 50 nM |
|  |  |  |  |  |  |  | COc1cccc2c1C(=O)c1c(O)c3c(c(O)c1C2=O)C[C@@](O)(C(=O)CO)C[C@@H]3O[C@H]1C[C@H](N)[C@H](O)[C@H](C)O1 [doxorubicin] |  | 1400 |  |

| Structure (SMILES) | IC50 [2] [nM] | IC50 [3] [nM] | IC50 [4] [nM] | IC50 [5] [nM] | GI50 [6] [nM] | IC50 (EGFR [7]) [nM] | IC50 (HER2) [nM] | viability at 96 h, 50 µM [1] [%] | GI50 [8] [nM] | other results |
| --- | --- | --- | --- | --- | --- | --- | --- | --- | --- | --- |
| C#Cc1cccc(Nc2ncnc3cc(OCCOC)c(OCCOC)cc23)c1 [Erlotinib, reference compound] | 30 ± 3 | 40 ± 3 | 30 ± 3 | 30 ± 3 |  |  |  |  |  | IC50 (BRAF^V600E [10]): […]; IC50 (BRAF^V600E [11]): […] |
